From patent US20050192279A1, “Pyridazinones as antagonists of alpha4 integrins” (priority 2004, published 2005)
Several values for one entry are separate records, joined by “and”; a condition that tells them apart may be missing. Identical values can stand only once.

Tested on: eosinophil peroxidase levels in ear punches
Assay: PMA-Induced Inflammation in Mouse Ear Skin and Measurement of Eosinophil Peroxidase
Format: in vivo, BALB/C mice
Details: total dose 5 mg/kg po bid; ear punches 24 h after PMA; 5 mg/kg
Experimental: Phorbol 12-Myristate 13-Acetate (PMA)-Induced Inflammation in Mouse Ear Skin and Measurement of Eosinophil Peroxidase
Phorbol 12-myristate 13-acetate (PMA) when applied to skin, generates a vigorous recruitment of immune cells to the site of application. Over a 24 hour period, there is accumulation of fluid and cells to the inflamed site, and thus is a general indicator of an inflammatory response. Among the recruited cells are eosinophils and neutrophils. Eosinophils can migrate into an inflamed or infected tissue via alpha 4 beta 1 integrin interactions with vascular cell adesion molecule-1 (VCAM-1) counter-receptors on vascular endothelial cells, and via alpha 4 beta 7 integrin to mucosal addressin cellular adhesion molecule on vascular endothelial cells in the gastrointestinal tract and mesenteric system. The recruited esoinophils can be quantified by measuring the presence of eosinophil peroxidase in a sample of the homogenized tissue.
Female BALB/C mice are ordered at 6 weeks of age and 16-18 grams from Charles River were used between 6-10 weeks of age. The animals were randomly assigned to groups of 10 (5/box) and housed in groups in plastic cages in a room with 12 h light-dark cycle and controlled temperature and humidity. They received food and water ad libitum.
Phorbol 12-myristate 13-acetate (PMA) was dissolved as 5 mg per mL stock in dimethyl sulfoxide (DMSO) and stored frozen as 20 microliter aliquots. For application to mouse ears, each aliquot was diluted in 2 mL with acetone.
The right ear of each mouse was treated topically with 20 microliters of acetone solution (10 microliters to each side of the ear) containing either 1 microgram of phorbol 12-myristate 13-acetate (PMA) or acetone alone.
Drugs that were tested orally were administered at −1 and +3 hours relative to PMA application.
Mice were sacrificed 24 h after PMA application. The right ear was punched with a 6 mm tissue punch and the tissue was placed in a tube on dry ice and kept frozen until extraction.
One tablet of phosphate citrate buffer was dissolved with urea hydrogen peroxide in 100 ml of water in which one tablet containing 60 mg of o-phenylenediaminedihydrochloride was added.
Ear tissue samples were homogenized in 2 ml of HTAB for 15 sec at speed 5.5 with a Polytron (large head) (Brinkman Instruments). The homogenate was stored at −20° C. until assayed. […]
Samples were typically tested at either a 1:2 or 1:4 dilution made with HTAB. […] Absorbance was read at 490 nm for the specific with subtraction of a 650 nm noise signal using a Thermomax 96-well spectrophotmetric plate reader (Molecular Devices). […]
The inhibition of PMA-induced ear edema was measured by eosinophil peroxidase levels in ear punches. […]

SMILES: C[C@@H]1C[C@H]2[C@@H]3CCC4=CC(=O)C=C[C@]4(C)[C@@]3(F)[C@@H](O)C[C@]2(C)[C@@]1(O)C(=O)CO [dexamethasone]
- % Inh. of Eosinophil Peroxidase: 83.6% and 109.0%
